Measurements as given in ChEMBL document CHEMBL4673260, “Pyridine alkaloids with activity in the central nervous system” (Bioorg Med Chem, 2020).

How the values were obtained:
[1] = molecular target: Gamma-aminobutyric acid receptor subunit alpha-1 (Homo sapiens) (UniProt P14867); assay: Inhibition of GABA-A alpha1 BDZ site (unknown origin) at 10 uM relative to control
[2] = molecular target: Muscarinic acetylcholine receptor M3 (Homo sapiens, UniProt P20309); assay: Inhibition of human muscarinic M3 receptor expressed in CHO-K1 cells at 10 uM relative to control; type: cell-based
[3] = molecular target: Gamma-aminobutyric acid type B receptor subunit 1 (Homo sapiens) (UniProt Q9UBS5); assay: Inhibition of human GABA-B1 at 10 uM relative to control
Histamine H3 receptor = Histamine H3 receptor (Homo sapiens, UniProt Q9Y5N1); assay: Inhibition of human histamine H3 receptor expressed in CHO-K1 cells at 10 uM relative to control; type: cell-based
Homo sapiens [4] = organism: Homo sapiens; assay: Inhibition of human adenosine transporter at 10 uM relative to control
[5] = molecular target: Protein kinase C alpha type (Homo sapiens) (UniProt P17252); assay: Inhibition of human protein kinase Ca at 10 uM relative to control
Homo sapiens [6] = organism: Homo sapiens; assay: Inhibition of human PDE3A1A at 10 uM relative to control
[7] = molecular target: Thromboxane A2 receptor (Homo sapiens) (UniProt P21731); assay: Inhibition of human Thromboxane A2 at 10 uM relative to control
[8] = molecular target: Neuropeptide Y receptor type 2 (Homo sapiens) (UniProt P49146); assay: Inhibition of human NPY2R expressed in CHO-K1 cells at 10 uM relative to control; type: cell-based
[9] = molecular target: Alpha-2A adrenergic receptor (Homo sapiens) (UniProt P08913); assay: Inhibition of human adrenergic receptor alpha2A expressed in CHO-K1 cells at 10 uM relative to control; type: cell-based
[10] = molecular target: Sodium-dependent serotonin transporter (Homo sapiens) (UniProt P31645); assay: Inhibition of human serotonin transporter expressed in HEK293 cells at 10 uM relative to control; type: cell-based
[11] = molecular target: Alpha-2B adrenergic receptor (Homo sapiens) (UniProt P18089); assay: Inhibition of human adrenergic receptor alpha2B expressed in CHO-K1 cells at 10 uM relative to control; type: cell-based
[12] = molecular target: Type-1 angiotensin II receptor (Homo sapiens) (UniProt P30556); assay: Inhibition of human AT1 receptor expressed in CHO-K1 cells at 10 uM relative to control; type: cell-based
hERG (KCNH2) = hERG (KCNH2) (Homo sapiens, UniProt Q12809); assay: Inhibition of human ERG in HEK293 cells at 10 uM relative to control; type: cell-based; settings: HEK293 cells that express hERG
[13] = molecular target: 5-hydroxytryptamine receptor 1A (Homo sapiens) (UniProt P08908); assay: Inhibition of human 5HT-1a receptor at 10 uM relative to control
[14] = molecular target: 5-hydroxytryptamine receptor 1D (Homo sapiens) (UniProt P28221); assay: Inhibition of 5HT-1D receptor (unknown origin) at 10 uM relative to control
[15] = molecular target: Sigma intracellular receptor 2 (Homo sapiens) (UniProt Q5BJF2); assay: Inhibition of sigma 2 receptor (unknown origin) at 10 uM relative to control
[16] = molecular target: D(2) dopamine receptor (Homo sapiens) (UniProt P14416); assay: Inhibition of human dopamine D2S receptor expressed in CHO-K1 cells at 10 uM relative to control; type: cell-based
[17] = molecular target: Beta-2 adrenergic receptor (Homo sapiens) (UniProt P07550); assay: Inhibition of human adrenergic receptor beta2 expressed in CHO-K1 cells at 10 uM relative to control; type: cell-based
[18] = molecular target: 5-hydroxytryptamine receptor 3A (Homo sapiens) (UniProt P46098); assay: Inhibition of 5HT-3 (unknown origin) receptor at 10 uM relative to control
D(3) dopamine receptor = D(3) dopamine receptor (Homo sapiens, UniProt P35462); assay: Inhibition of human dopamine D3 receptor expressed in CHO-K1 cells at 10 uM relative to control; type: cell-based
Homo sapiens [19] = organism: Homo sapiens; assay: Inhibition of nAChR (unknown origin) at 10 uM relative to control
Homo sapiens [20] = organism: Homo sapiens; assay: Inhibition of Glutamate receptor ionotropic AMPA site (unknown origin) at 10 uM relative to control
[21] = molecular target: Endothelin-1 receptor (Homo sapiens) (UniProt P25101); assay: Inhibition of human ET-A at 10 uM relative to control
[22] = molecular target: Muscarinic acetylcholine receptor M4 (Homo sapiens) (UniProt P08173); assay: Inhibition of human muscarinic M4 receptor expressed in CHO-K1 cells at 10 uM relative to control; type: cell-based
[23] = molecular target: Histamine H1 receptor (Homo sapiens) (UniProt P35367); assay: Inhibition of human histamine H1 receptor expressed in CHO-K1 cells at 10 uM relative to control; type: cell-based
[24] = molecular target: Alpha-2C adrenergic receptor (Homo sapiens) (UniProt P18825); assay: Inhibition of human adrenergic receptor alpha2C expressed in CHO-K1 cells at 10 uM relative to control; type: cell-based
[25] = molecular target: cGMP-specific 3',5'-cyclic phosphodiesterase (Homo sapiens) (UniProt O76074); assay: Inhibition of human PDE5A1 at 10 uM relative to control
[26] = molecular target: Leukotriene B4 receptor 1 (Homo sapiens) (UniProt Q15722); assay: Inhibition of human BLT expressed in CHO-K1 cells at 10 uM relative to control; type: cell-based
[27] = molecular target: T1, Neuronal acetylcholine receptor; alpha4/beta2 (Rattus norvegicus, UniProt P09483+P12390)
Description: Agonist activity at alpha4beta2 nAChR in rat frontal cortex membrane

[28] = molecular target: Mu-type opioid receptor (Homo sapiens) (UniProt P35372); assay: Inhibition of human Mu-type opioid receptor at 10 uM relative to control
Homo sapiens [29] = organism: Homo sapiens; assay: Inhibition of Glutamate receptor ionotropic NMDA phencyclidine site (unknown origin) at 10 uM relative to control
Homo sapiens [30] = organism: Homo sapiens; assay: Inhibition of NOS (unknown origin) at 10 uM relative to control
[31] = molecular target: T1, Neuronal acetylcholine receptor; alpha4/beta2; assay: Displacement of [3H]epibatidine from alpha4beta2 nAChR in rat frontal cortex membrane by scintillation counting method; type: cell membranes
[32] = molecular target: D(4) dopamine receptor (Homo sapiens) (UniProt P21917); assay: Inhibition of human dopamine D4.4 receptor expressed in CHO-K1 cells at 10 uM relative to control; type: cell-based
[33] = molecular target: Histamine H2 receptor (Homo sapiens) (UniProt P25021); assay: Inhibition of human histamine H2 receptor expressed in CHO-K1 cells at 10 uM relative to control; type: cell-based
[34] = molecular target: Adenosine receptor A2a (Homo sapiens) (UniProt P29274); assay: Inhibition of human adenosine receptor A2A expressed in HEK293 cells at 10 uM relative to control; type: cell-based
[35] = Half life in human; type: ADME
[36] = Induction of contextual fear extinction in fear-conditioned C57/BlJ6 mouse assessed as decrease in initial freezing behavior at 5 mg/kg administered for 1 week by contextual fear conditioning assay; type: functional; parameters: scale not given: the % may be the effect or the level left; settings: time 1 weeks
Homo sapiens [37] = organism: Homo sapiens; assay: Inhibition of Glutamate receptor ionotropic NMDA agonist site (unknown origin) at 10 uM relative to control
[38] = molecular target: Muscarinic acetylcholine receptor M5 (Homo sapiens) (UniProt P08912); assay: Inhibition of human muscarinic M5 receptor expressed in CHO-K1 cells at 10 uM relative to control; type: cell-based
Sequence of Muscarinic acetylcholine receptor M5 (Homo sapiens) (P08912 whole entry): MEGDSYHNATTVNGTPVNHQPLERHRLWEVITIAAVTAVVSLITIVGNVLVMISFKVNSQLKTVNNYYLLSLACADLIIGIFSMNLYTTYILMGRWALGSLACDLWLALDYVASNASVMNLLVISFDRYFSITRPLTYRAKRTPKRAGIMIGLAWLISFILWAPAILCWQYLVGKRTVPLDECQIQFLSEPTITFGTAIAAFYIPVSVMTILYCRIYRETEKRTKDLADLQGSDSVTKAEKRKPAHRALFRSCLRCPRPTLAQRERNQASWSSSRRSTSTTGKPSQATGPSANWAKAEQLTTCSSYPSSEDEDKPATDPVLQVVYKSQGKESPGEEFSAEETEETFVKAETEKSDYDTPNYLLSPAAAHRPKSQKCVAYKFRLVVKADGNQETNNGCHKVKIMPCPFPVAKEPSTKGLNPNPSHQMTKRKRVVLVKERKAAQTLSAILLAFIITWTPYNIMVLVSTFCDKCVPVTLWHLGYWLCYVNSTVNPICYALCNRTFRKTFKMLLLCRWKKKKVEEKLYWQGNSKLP

T1 sequence (P09483 whole entry): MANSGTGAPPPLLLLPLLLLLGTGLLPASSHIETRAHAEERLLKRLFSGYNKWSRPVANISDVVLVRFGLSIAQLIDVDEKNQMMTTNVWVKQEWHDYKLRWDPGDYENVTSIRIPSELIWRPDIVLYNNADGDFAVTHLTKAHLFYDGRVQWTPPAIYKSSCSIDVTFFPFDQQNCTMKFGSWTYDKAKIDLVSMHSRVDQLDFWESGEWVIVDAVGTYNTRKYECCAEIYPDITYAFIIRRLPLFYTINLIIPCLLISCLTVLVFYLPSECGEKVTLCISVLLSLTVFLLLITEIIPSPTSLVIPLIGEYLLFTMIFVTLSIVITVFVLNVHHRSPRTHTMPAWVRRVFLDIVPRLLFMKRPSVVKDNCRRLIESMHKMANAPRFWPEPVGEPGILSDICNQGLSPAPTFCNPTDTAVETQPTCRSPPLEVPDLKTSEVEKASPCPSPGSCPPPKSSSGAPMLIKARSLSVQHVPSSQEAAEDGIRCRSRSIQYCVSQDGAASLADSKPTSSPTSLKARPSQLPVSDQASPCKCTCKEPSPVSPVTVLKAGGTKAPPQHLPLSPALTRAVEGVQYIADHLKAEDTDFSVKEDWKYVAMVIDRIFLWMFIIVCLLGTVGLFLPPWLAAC
T1 sequence (P12390 whole entry): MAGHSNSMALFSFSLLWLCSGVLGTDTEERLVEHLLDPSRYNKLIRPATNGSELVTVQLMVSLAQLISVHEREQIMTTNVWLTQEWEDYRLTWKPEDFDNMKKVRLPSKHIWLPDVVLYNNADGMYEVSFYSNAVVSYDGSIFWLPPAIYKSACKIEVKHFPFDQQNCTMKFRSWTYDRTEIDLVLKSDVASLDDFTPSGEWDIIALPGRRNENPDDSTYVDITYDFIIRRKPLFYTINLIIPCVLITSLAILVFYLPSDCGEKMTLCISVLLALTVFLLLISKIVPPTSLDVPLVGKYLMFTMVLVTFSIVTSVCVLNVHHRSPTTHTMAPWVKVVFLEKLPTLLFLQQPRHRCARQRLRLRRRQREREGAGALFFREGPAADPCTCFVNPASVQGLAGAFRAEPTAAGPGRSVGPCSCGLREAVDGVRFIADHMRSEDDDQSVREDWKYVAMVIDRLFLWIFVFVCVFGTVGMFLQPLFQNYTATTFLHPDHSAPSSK
Sequence of D(4) dopamine receptor (Homo sapiens) (P21917 whole entry): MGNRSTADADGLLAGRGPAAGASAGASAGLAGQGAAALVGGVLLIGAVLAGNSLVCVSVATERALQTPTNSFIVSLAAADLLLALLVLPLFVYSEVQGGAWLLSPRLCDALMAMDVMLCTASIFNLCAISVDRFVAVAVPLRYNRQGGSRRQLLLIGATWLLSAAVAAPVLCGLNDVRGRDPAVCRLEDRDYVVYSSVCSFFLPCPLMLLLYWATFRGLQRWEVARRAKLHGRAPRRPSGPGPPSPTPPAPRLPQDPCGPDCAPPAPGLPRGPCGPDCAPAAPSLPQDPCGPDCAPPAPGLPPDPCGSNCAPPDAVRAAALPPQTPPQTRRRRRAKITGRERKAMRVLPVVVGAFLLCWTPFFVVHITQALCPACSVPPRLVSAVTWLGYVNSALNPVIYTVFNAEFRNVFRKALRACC
Sequence of Histamine H1 receptor (Homo sapiens) (P35367 whole entry): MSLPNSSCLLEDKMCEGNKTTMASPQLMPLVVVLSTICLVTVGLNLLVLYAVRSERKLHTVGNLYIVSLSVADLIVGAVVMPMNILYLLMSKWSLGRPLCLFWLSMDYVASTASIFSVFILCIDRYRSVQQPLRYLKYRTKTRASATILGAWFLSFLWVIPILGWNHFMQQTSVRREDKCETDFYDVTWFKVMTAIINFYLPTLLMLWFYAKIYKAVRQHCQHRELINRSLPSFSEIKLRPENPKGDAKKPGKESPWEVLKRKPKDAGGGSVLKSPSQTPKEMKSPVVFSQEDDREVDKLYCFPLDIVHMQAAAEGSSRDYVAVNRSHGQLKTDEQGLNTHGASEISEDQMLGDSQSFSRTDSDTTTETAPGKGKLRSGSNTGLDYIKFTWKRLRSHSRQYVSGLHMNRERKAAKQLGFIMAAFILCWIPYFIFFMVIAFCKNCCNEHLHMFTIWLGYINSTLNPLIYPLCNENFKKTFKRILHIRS
Sequence of hERG (KCNH2) (Q12809 whole entry): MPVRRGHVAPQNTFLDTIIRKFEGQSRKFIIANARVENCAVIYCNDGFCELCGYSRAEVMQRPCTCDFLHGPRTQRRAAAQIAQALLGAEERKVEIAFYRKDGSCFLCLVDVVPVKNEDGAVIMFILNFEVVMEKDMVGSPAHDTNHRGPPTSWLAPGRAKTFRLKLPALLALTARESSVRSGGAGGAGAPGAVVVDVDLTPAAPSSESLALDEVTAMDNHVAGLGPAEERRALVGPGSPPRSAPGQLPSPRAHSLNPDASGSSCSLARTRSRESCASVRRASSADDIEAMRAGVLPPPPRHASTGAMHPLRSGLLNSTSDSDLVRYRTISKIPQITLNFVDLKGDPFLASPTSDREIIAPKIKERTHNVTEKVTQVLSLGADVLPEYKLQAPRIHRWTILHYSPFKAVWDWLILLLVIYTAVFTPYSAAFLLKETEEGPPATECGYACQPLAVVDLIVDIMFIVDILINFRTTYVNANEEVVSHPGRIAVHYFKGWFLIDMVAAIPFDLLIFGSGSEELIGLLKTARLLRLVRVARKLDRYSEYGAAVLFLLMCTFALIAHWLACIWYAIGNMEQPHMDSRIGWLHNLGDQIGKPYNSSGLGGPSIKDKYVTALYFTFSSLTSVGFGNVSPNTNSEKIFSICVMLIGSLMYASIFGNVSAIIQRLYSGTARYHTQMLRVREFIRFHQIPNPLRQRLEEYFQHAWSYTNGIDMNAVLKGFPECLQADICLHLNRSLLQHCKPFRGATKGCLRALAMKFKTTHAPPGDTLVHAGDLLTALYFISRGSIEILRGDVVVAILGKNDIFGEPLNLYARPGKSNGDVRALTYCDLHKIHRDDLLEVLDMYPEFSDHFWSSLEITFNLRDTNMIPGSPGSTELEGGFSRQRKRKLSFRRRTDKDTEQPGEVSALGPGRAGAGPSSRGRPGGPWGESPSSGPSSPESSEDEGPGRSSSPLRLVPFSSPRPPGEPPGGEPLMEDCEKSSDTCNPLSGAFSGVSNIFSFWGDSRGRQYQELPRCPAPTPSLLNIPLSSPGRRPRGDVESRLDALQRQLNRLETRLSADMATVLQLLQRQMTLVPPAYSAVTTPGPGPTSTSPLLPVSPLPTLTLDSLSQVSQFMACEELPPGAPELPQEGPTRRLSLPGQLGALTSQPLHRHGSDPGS
Sequence of Gamma-aminobutyric acid type B receptor subunit 1 (Homo sapiens) (Q9UBS5 whole entry): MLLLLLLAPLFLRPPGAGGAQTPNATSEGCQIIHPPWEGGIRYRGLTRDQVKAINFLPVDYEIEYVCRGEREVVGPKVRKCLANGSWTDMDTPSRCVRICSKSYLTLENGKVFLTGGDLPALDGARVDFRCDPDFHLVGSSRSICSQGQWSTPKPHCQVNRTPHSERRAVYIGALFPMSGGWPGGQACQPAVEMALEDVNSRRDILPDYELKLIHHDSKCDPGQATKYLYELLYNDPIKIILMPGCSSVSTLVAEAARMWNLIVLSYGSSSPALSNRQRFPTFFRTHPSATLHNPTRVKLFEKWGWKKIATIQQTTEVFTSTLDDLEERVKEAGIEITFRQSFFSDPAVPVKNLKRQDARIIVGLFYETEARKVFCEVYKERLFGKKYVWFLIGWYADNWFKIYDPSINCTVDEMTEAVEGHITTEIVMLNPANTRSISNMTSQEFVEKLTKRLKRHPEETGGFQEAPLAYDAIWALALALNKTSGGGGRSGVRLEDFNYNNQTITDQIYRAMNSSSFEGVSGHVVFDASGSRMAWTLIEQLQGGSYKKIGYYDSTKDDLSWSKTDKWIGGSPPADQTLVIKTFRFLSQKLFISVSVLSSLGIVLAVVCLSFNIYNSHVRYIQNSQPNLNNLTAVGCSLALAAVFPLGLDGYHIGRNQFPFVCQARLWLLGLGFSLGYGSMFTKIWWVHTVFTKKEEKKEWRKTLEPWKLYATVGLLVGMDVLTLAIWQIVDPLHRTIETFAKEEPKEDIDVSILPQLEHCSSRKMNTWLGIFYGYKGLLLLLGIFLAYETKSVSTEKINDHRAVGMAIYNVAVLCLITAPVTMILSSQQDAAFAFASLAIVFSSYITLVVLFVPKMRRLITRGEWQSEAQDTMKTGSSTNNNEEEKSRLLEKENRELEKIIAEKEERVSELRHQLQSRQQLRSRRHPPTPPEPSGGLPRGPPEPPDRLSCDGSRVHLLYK
Sequence of Type-1 angiotensin II receptor (Homo sapiens) (P30556 whole entry): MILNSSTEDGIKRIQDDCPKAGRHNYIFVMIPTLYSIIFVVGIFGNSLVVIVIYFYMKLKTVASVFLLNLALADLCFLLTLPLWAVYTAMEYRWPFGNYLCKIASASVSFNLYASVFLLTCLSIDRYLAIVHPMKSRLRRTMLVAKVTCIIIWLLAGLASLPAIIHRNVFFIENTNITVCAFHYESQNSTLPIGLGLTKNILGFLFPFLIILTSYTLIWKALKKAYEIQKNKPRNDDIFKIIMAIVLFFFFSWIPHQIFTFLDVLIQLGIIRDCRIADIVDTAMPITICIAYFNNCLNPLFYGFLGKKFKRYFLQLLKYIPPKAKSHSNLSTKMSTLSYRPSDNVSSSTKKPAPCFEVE

SMILES: CN1C(=O)CC[C@H]1c1cccnc1 [COTININE]
- inhibition [1]: < 50%
- inhibition [2]: < 50%
- inhibition [3]: < 50%
- inhibition (Histamine H3 receptor): < 50%
- inhibition (Homo sapiens [4]): < 50%
- inhibition [5]: < 50%
- inhibition (Homo sapiens [6]): < 50%
- inhibition [7]: < 50%
- inhibition [8]: < 50%
- inhibition [9]: < 50%
- inhibition [10]: < 50%
- inhibition [11]: < 50%
- inhibition [12]: < 50%
- inhibition at 10 µM (hERG (KCNH2)): < 50%
- inhibition [13]: < 50%
- inhibition [14]: < 50%
- inhibition [15]: < 50%
- inhibition [16]: < 50%
- inhibition [17]: < 50%
- inhibition [18]: < 50%
- inhibition (D(3) dopamine receptor): < 50%
- inhibition (Homo sapiens [19]): < 50%
- inhibition (Homo sapiens [20]): < 50%
- inhibition [21]: < 50%
- inhibition [22]: < 50%
- inhibition [23]: < 50%
- inhibition [24]: < 50%
- inhibition [25]: < 50%
- inhibition [26]: < 50%
- EC50 [27]: 21 µM
- inhibition [28]: < 50%
- inhibition (Homo sapiens [29]): < 50%
- inhibition (Homo sapiens [30]): < 50%
- Ki [31]: 3 µM
- inhibition [32]: < 50%
- inhibition [33]: < 50%
- inhibition [34]: < 50%
- half-life [35]: 19 h
- Activity [36]: >=20%
- inhibition (Homo sapiens [37]): < 50%
- inhibition [38]: < 50%
